According to US20150132328A1 (priority 2011, published 2015):
Read-outs that look alike come from different tables or passages of the source.

What was measured:
Jurkat cells = conditions: peptide 10^−10M, PHA 1 μg/mL
newborn rat thymocytes = conditions: Con A 50 pg/mL
Description: It was used an octapeptide with similar weight for the elaboration of the complex, to which was just the proline (4) and Glycine (5) original amino acids were interchanged by proline (4) and Glycine (5) resulting as […].

IL-2 = conditions: umbilical cord blood; PHA; cited from earlier work
human lymphocytes = conditions: for Proliferation (% with respect to the control): PHA 1 μg/mL
THP-1 cells = conditions: for Proliferation (% with respect to the control): LPS 0.5 μg/mL
Description: We proceeded to perform some related to the proliferative stimulation of the peptide in presence of other divalent cations such as magnesium, copper, and manganese.

LEDGPKFL [reference compound]
Proliferation (% with respect to the control) (Jurkat cells; [ZINC] (M) −8): 195 ± 10 %
Proliferation (% with respect to the control) (Jurkat cells; [ZINC] (M) −9): 192 ± 12 %
Proliferation (% with respect to the control) (Jurkat cells; [ZINC] (M) −10): 190 ± 10 %
Proliferation (% with respect to the control) (Jurkat cells; [ZINC] (M) −11): 135 ± 10 %
Proliferation (% with respect to the control) (Jurkat cells; [ZINC] (M) −12): 102 ± 5.2%
Proliferation (% with respect to the control) (newborn rat thymocytes; 10^−6 (918 ng/mL)): 123.1 ± 6.1 %
Proliferation (% with respect to the control) (newborn rat thymocytes; 10^−7 (91.8 ng/mL)): 125.6 ± 3.9 %
Proliferation (% with respect to the control) (newborn rat thymocytes; 10^−7.5 (9.58 ng/mL)): 119.2 ± 6.1 %
Proliferation (% with respect to the control) (newborn rat thymocytes; 10^−8 (9.18 ng/mL)): 117.3 ± 3.2 %
Proliferation (% with respect to the control) (newborn rat thymocytes; 10^−9 (0.91 ng/mL)): 110.6 ± 7.9%
Proliferation (% with respect to the control) (newborn rat thymocytes; 10^−10 (0.09 ng/mL)): 104.3 ± 4.8%
Proliferation (% with respect to the control) (newborn rat thymocytes; 10^−11 (0.009 ng/mL)): 103.7 ± 5.1%
Proliferation (% with respect to the control) (newborn rat thymocytes; 10^−12 (0.0009 ng/mL)): 104.4 ± 2.5%
Concentrations increasing IL-2 production (IL-2): 300 to 600 ng/mL

Zinc [reference compound]
Proliferation (% with respect to the control) (human lymphocytes; Concentration (M) −6): 96 ± 2.8%
Proliferation (% with respect to the control) (human lymphocytes; Concentration (M) −7): 99 ± 2.7%
Proliferation (% with respect to the control) (human lymphocytes; Concentration (M) −7.5): 95 ± 3.8%
Proliferation (% with respect to the control) (human lymphocytes; Concentration (M) −8): 101 ± 4.1%
Proliferation (% with respect to the control) (human lymphocytes; Concentration (M) −9): 103 ± 3.9%
Proliferation (% with respect to the control) (human lymphocytes; Concentration (M) −10): 100 ± 3.0%
Proliferation (% with respect to the control) (human lymphocytes; Concentration (M) −11): 99 ± 3.9%
Proliferation (% with respect to the control) (human lymphocytes; Concentration (M) −12): 96 ± 4.5%
Effect on proliferation (human lymphocytes; zinc ion by itself, PHA stimulated): did not modify the proliferation
Proliferation (% with respect to the control) (THP-1 cells; Concentration (M) −6): 105 ± 8.8%
Proliferation (% with respect to the control) (THP-1 cells; Concentration (M) −7): 102 ± 9.7%
Proliferation (% with respect to the control) (THP-1 cells; Concentration (M) −7.5): 104 ± 8.8%
Proliferation (% with respect to the control) (THP-1 cells; Concentration (M) −8): 102 ± 12.1%
Proliferation (% with respect to the control) (THP-1 cells; Concentration (M) −9): 103 ± 9.9%
Proliferation (% with respect to the control) (THP-1 cells; Concentration (M) −10): 100 ± 7.0%
Proliferation (% with respect to the control) (THP-1 cells; Concentration (M) −11): 101 ± 3.9%
Proliferation (% with respect to the control) (THP-1 cells; Concentration (M) −12): 98 ± 4.5%
Effect on proliferation (THP-1 cells; zinc ion by itself): did not stimulate the proliferation
